In ChEMBL document CHEMBL3885861, “Open TG-GATES”:

Species on record: Rattus norvegicus
Experiment: Open TG-GATES - Regimen: Single
Format: toxicity, organism-based, Sprague-Dawley
Design: regimen Single, gender Male, age 6 weeks
Details: in vivo, po, route gavage; for APTT / Bas / Eos / Fbg / Hb / Ht / Lym / MCH / MCHC / MCV / Mono / Neu / PT / Plat / RBC / Ret / WBC: tissue Blood; for KIDNEY_L / KIDNEY_R / KIDNEY_TOTAL: tissue Kidney; for LIVER: tissue Liver; for A/G / ALP / ALT / AST / BUN / CRE / Ca / Cl / DBIL / GLC / IP / K / LDH / Na / PL / RALB / TBIL / TC / TG / TP / gamma-GTP: tissue Plasma
[1] = 60 mg/kg, 3 h, dose level Middle
[2] = 60 mg/kg, 6 h, dose level Middle
[3] = 60 mg/kg, 9 h, dose level Middle
[4] = 60 mg/kg, 24 h, dose level Middle
[5] = 200 mg/kg, 3 h, dose level High
[6] = 200 mg/kg, 6 h, dose level High
[7] = 200 mg/kg, 9 h, dose level High
[8] = 200 mg/kg, 24 h, dose level High

CCc1oc2ccccc2c1C(=O)c1cc(Br)c(O)c(Br)c1 [BENZBROMARONE]
TERMINAL_BW [1]: 215.1 g
APTT [1]: 17.4 s
Bas [1]: 0%
Eos [1]: 1%
Fbg [1]: 233.2 mg/dL
Hb [1]: 13.8 g/dL
Ht [1]: 41.1%
Lym [1]: 83%
MCH [1]: 21.9 pg
MCHC [1]: 33.7%
MCV [1]: 64.9 fL
Mono [1]: 6.6%
Neu [1]: 9.4%
PT [1]: 11.8 s
Plat [1]: 99.4 x10_4/uL
RBC [1]: 633 x10_4/ul
Ret [1]: 7.5%
WBC [1]: 133 x10_2/uL
KIDNEY_L [1]: 1 g
KIDNEY_R [1]: 1 g
KIDNEY_TOTAL [1]: 1.9 g
LIVER [1]: 10.6 g
A/G [1]: 2.1
ALP [1]: 892.8 IU/L
ALT [1]: 30.6 IU/L
AST [1]: 62.4 IU/L
BUN [1]: 12.8 mg/dL
CRE [1]: 0.6 mg/dL
Ca [1]: 11 mg/dL
Cl [1]: 103.8 meq/L
DBIL [1]: 0.064 mg/dL
GLC [1]: 202.8 mg/dL
IP [1]: 9.8 mg/dL
K [1]: 4.8 meq/L
LDH [1]: 87.4 IU/L
Na [1]: 139.6 meq/L
PL [1]: 147.6 mg/dL
RALB [1]: 3.8 g/dL
TBIL [1]: 0.3 mg/dL
TC [1]: 82.6 mg/dL
TG [1]: 72.8 mg/dL
TP [1]: 5.7 g/dL
gamma-GTP [1]: 1 IU/L
TERMINAL_BW [2]: 212 g
APTT [2]: 16.1 s
Bas [2]: 0%
Eos [2]: 1%
Fbg [2]: 230.6 mg/dL
Hb [2]: 13.5 g/dL
Ht [2]: 40.2%
Lym [2]: 75.6%
MCH [2]: 21.7 pg
MCHC [2]: 33.6%
MCV [2]: 64.5 fL
Mono [2]: 6.4%
Neu [2]: 17.2%
PT [2]: 12.2 s
Plat [2]: 103.4 x10_4/uL
RBC [2]: 624.2 x10_4/ul
Ret [2]: 7.8%
WBC [2]: 86 x10_2/uL
KIDNEY_L [2]: 1 g
KIDNEY_R [2]: 1 g
KIDNEY_TOTAL [2]: 2 g
LIVER [2]: 9.8 g
A/G [2]: 2.2
ALP [2]: 764.8 IU/L
ALT [2]: 28.8 IU/L
AST [2]: 58.8 IU/L
BUN [2]: 9.2 mg/dL
CRE [2]: 0.5 mg/dL
Ca [2]: 10.3 mg/dL
Cl [2]: 103.6 meq/L
DBIL [2]: 0.016 mg/dL
GLC [2]: 195 mg/dL
IP [2]: 10.1 mg/dL
K [2]: 4.8 meq/L
LDH [2]: 88.8 IU/L
Na [2]: 138.6 meq/L
PL [2]: 131.4 mg/dL
RALB [2]: 3.8 g/dL
TBIL [2]: 0.4 mg/dL
TC [2]: 74.2 mg/dL
TG [2]: 79.6 mg/dL
TP [2]: 5.6 g/dL
gamma-GTP [2]: 1 IU/L
TERMINAL_BW [3]: 210.8 g
APTT [3]: 16.3 s
Bas [3]: 0%
Eos [3]: 1%
Fbg [3]: 233 mg/dL
Hb [3]: 13.6 g/dL
Ht [3]: 40.8%
Lym [3]: 77.6%
MCH [3]: 21.9 pg
MCHC [3]: 33.4%
MCV [3]: 65.6 fL
Mono [3]: 5.4%
Neu [3]: 16.6%
PT [3]: 12.2 s
Plat [3]: 109.2 x10_4/uL
RBC [3]: 622.6 x10_4/ul
Ret [3]: 7.4%
WBC [3]: 90.4 x10_2/uL
KIDNEY_L [3]: 0.9 g
KIDNEY_R [3]: 1 g
KIDNEY_TOTAL [3]: 1.9 g
LIVER [3]: 9.1 g
A/G [3]: 2.1
ALP [3]: 731.6 IU/L
ALT [3]: 29 IU/L
AST [3]: 59.8 IU/L
BUN [3]: 10.4 mg/dL
CRE [3]: 0.6 mg/dL
Ca [3]: 10.1 mg/dL
Cl [3]: 104.4 meq/L
DBIL [3]: 0.004 mg/dL
GLC [3]: 187.8 mg/dL
IP [3]: 11.1 mg/dL
K [3]: 4.9 meq/L
LDH [3]: 85 IU/L
Na [3]: 138 meq/L
PL [3]: 112.4 mg/dL
RALB [3]: 3.9 g/dL
TBIL [3]: 0.3 mg/dL
TC [3]: 67.4 mg/dL
TG [3]: 37.6 mg/dL
TP [3]: 5.7 g/dL
gamma-GTP [3]: 1.2 IU/L
TERMINAL_BW [4]: 222.2 g
APTT [4]: 16.1 s
Bas [4]: 0%
Eos [4]: 1.2%
Fbg [4]: 223.2 mg/dL
Hb [4]: 13.8 g/dL
Ht [4]: 41.1%
Lym [4]: 77.2%
MCH [4]: 22.4 pg
MCHC [4]: 33.7%
MCV [4]: 66.5 fL
Mono [4]: 9%
Neu [4]: 12.6%
PT [4]: 12.3 s
Plat [4]: 105.9 x10_4/uL
RBC [4]: 617.8 x10_4/ul
Ret [4]: 7.5%
WBC [4]: 80 x10_2/uL
KIDNEY_L [4]: 1 g
KIDNEY_R [4]: 1 g
KIDNEY_TOTAL [4]: 2.1 g
LIVER [4]: 11.9 g
A/G [4]: 2.2
ALP [4]: 861.2 IU/L
ALT [4]: 31.6 IU/L
AST [4]: 63.4 IU/L
BUN [4]: 18.6 mg/dL
CRE [4]: 0.6 mg/dL
Ca [4]: 10.3 mg/dL
Cl [4]: 104.8 meq/L
DBIL [4]: 0.016 mg/dL
GLC [4]: 183.2 mg/dL
IP [4]: 7.9 mg/dL
K [4]: 5 meq/L
LDH [4]: 111.2 IU/L
Na [4]: 138.2 meq/L
PL [4]: 130.6 mg/dL
RALB [4]: 4.1 g/dL
TBIL [4]: 0.4 mg/dL
TC [4]: 68.2 mg/dL
TG [4]: 111 mg/dL
TP [4]: 5.9 g/dL
gamma-GTP [4]: 1.4 IU/L
TERMINAL_BW [5]: 215.1 g
APTT [5]: 17.8 s
Bas [5]: 0%
Eos [5]: 1%
Fbg [5]: 227 mg/dL
Hb [5]: 13.3 g/dL
Ht [5]: 39.8%
Lym [5]: 76.4%
MCH [5]: 22.2 pg
MCHC [5]: 33.3%
MCV [5]: 66.5 fL
Mono [5]: 4.4%
Neu [5]: 18.4%
PT [5]: 12.3 s
Plat [5]: 98.6 x10_4/uL
RBC [5]: 600 x10_4/ul
Ret [5]: 7.7%
WBC [5]: 85.4 x10_2/uL
KIDNEY_L [5]: 1 g
KIDNEY_R [5]: 0.9 g
KIDNEY_TOTAL [5]: 1.9 g
LIVER [5]: 9.9 g
A/G [5]: 1.9
ALP [5]: 814 IU/L
ALT [5]: 37.2 IU/L
AST [5]: 70 IU/L
BUN [5]: 17.2 mg/dL
CRE [5]: 0.8 mg/dL
Ca [5]: 9.9 mg/dL
Cl [5]: 103.4 meq/L
DBIL [5]: 0.096 mg/dL
GLC [5]: 252.6 mg/dL
IP [5]: 10 mg/dL
K [5]: 5.3 meq/L
LDH [5]: 137.2 IU/L
Na [5]: 138.4 meq/L
PL [5]: 136.8 mg/dL
RALB [5]: 3.6 g/dL
TBIL [5]: 0.4 mg/dL
TC [5]: 75.6 mg/dL
TG [5]: 69.6 mg/dL
TP [5]: 5.5 g/dL
gamma-GTP [5]: 1 IU/L
TERMINAL_BW [6]: 213.5 g
APTT [6]: 16.3 s
Bas [6]: 0%
Eos [6]: 0.8%
Fbg [6]: 239.2 mg/dL
Hb [6]: 13.2 g/dL
Ht [6]: 39.6%
Lym [6]: 80.2%
MCH [6]: 21.6 pg
MCHC [6]: 33.3%
MCV [6]: 64.8 fL
Mono [6]: 5.4%
Neu [6]: 13.6%
PT [6]: 12.2 s
Plat [6]: 97.5 x10_4/uL
RBC [6]: 612 x10_4/ul
Ret [6]: 7.9%
WBC [6]: 66.9 x10_2/uL
KIDNEY_L [6]: 1 g
KIDNEY_R [6]: 1 g
KIDNEY_TOTAL [6]: 2 g
LIVER [6]: 9.5 g
A/G [6]: 2
ALP [6]: 776.8 IU/L
ALT [6]: 34 IU/L
AST [6]: 59 IU/L
BUN [6]: 14.2 mg/dL
CRE [6]: 0.7 mg/dL
Ca [6]: 10.5 mg/dL
Cl [6]: 101.4 meq/L
DBIL [6]: 0.024 mg/dL
GLC [6]: 212.4 mg/dL
IP [6]: 10.3 mg/dL
K [6]: 4.8 meq/L
LDH [6]: 137.4 IU/L
Na [6]: 139.2 meq/L
PL [6]: 137 mg/dL
RALB [6]: 3.8 g/dL
TBIL [6]: 0.4 mg/dL
TC [6]: 78.4 mg/dL
TG [6]: 56.6 mg/dL
TP [6]: 5.7 g/dL
gamma-GTP [6]: 1.4 IU/L
TERMINAL_BW [7]: 213.1 g
APTT [7]: 17 s
Bas [7]: 0%
Eos [7]: 0%
Fbg [7]: 240 mg/dL
Hb [7]: 13.2 g/dL
Ht [7]: 39.4%
Lym [7]: 79.2%
MCH [7]: 22.2 pg
MCHC [7]: 33.6%
MCV [7]: 66 fL
Mono [7]: 2.8%
Neu [7]: 17.8%
PT [7]: 12.2 s
Plat [7]: 104 x10_4/uL
RBC [7]: 596.4 x10_4/ul
Ret [7]: 8.2%
WBC [7]: 96.1 x10_2/uL
KIDNEY_L [7]: 1 g
KIDNEY_R [7]: 1 g
KIDNEY_TOTAL [7]: 2 g
LIVER [7]: 9.2 g
A/G [7]: 2.1
ALP [7]: 868 IU/L
ALT [7]: 34.4 IU/L
AST [7]: 60.8 IU/L
BUN [7]: 16.6 mg/dL
CRE [7]: 0.7 mg/dL
Ca [7]: 10.4 mg/dL
Cl [7]: 103.4 meq/L
DBIL [7]: 0.04 mg/dL
GLC [7]: 207.8 mg/dL
IP [7]: 10.7 mg/dL
K [7]: 4.9 meq/L
LDH [7]: 178.8 IU/L
Na [7]: 138.6 meq/L
PL [7]: 143.8 mg/dL
RALB [7]: 3.9 g/dL
TBIL [7]: 0.3 mg/dL
TC [7]: 81.2 mg/dL
TG [7]: 65.6 mg/dL
TP [7]: 5.9 g/dL
gamma-GTP [7]: 1.4 IU/L
TERMINAL_BW [8]: 217.2 g
APTT [8]: 15.8 s
Bas [8]: 0%
Eos [8]: 0.6%
Fbg [8]: 219.2 mg/dL
Hb [8]: 13.9 g/dL
Ht [8]: 41.2%
Lym [8]: 83.6%
MCH [8]: 22.2 pg
MCHC [8]: 33.6%
MCV [8]: 65.9 fL
Mono [8]: 4.6%
Neu [8]: 11.4%
PT [8]: 12.4 s
Plat [8]: 107.4 x10_4/uL
RBC [8]: 627.2 x10_4/ul
Ret [8]: 7.6%
WBC [8]: 117.5 x10_2/uL
KIDNEY_L [8]: 1 g
KIDNEY_R [8]: 1 g
KIDNEY_TOTAL [8]: 2 g
LIVER [8]: 11.3 g
A/G [8]: 2.1
ALP [8]: 1012.6 IU/L
ALT [8]: 35 IU/L
AST [8]: 61 IU/L
BUN [8]: 16.8 mg/dL
CRE [8]: 0.7 mg/dL
Ca [8]: 10.2 mg/dL
Cl [8]: 103.6 meq/L
DBIL [8]: 0.018 mg/dL
GLC [8]: 182 mg/dL
IP [8]: 7.9 mg/dL
K [8]: 4.9 meq/L
LDH [8]: 186.2 IU/L
Na [8]: 139.6 meq/L
PL [8]: 119.6 mg/dL
RALB [8]: 3.9 g/dL
TBIL [8]: 0.3 mg/dL
TC [8]: 70.8 mg/dL
TG [8]: 74.8 mg/dL
TP [8]: 5.9 g/dL
gamma-GTP [8]: 1.6 IU/L
